Results from publication PMC9313812, “The Pseudo‐Natural Product Rhonin Targets RHOGDI” (Angewandte Chemie (International Ed. in English), 2022).

Experiments:
[1] = system: NIH/3T3 cells; experiment: Wound healing assay (cell migration); assay type: cell-based; details: 10 µM Rhonin; 2 µg/ml RHO inhibitor I; purmorphamine 2 µM
Description: Supplementary Figure S13. Influence of 10 µM Rhonin on cell migration in NIH/3T3 cells upon stimulation with purmorphamine (Purm, 2 µM). The RHO inhibitor I was used as a control. Cell migration was monitored by means of a wound healing assay. Data ar e representative of three independent experiments (n=3, N = 3), mean values ± SD. […]
40,000 x g for 30 min at 4°C. Supernatants were collected as cytoplasmic fraction and pellets were resuspended into a homogenization buffer (0.25 M sucrose, 20 mM Tris/HCl pH 7.4, 25 mM KCl, 5 mM MgCl2) and further centrifuged (2 h at 100,000 x g) using an iodixanol (OptiPrep, Axis Shield) gradient solution. Obtained fractions were used for immunoblotting.
NIH/3T3 cells were seeded in a 96 plate (10,000 cell per well/ plate name: Essen Bioscience NO 4379). NIH/3T3 cells were grown till 80% confluence and then serum starved (0 % FCS) for 24 h. […] Cell migration was monitored using IncuCyte ZOOM for a period of 48 h. The images were analyzed by the Incucyte Scratch Wound Analysis Software. […]
GTPase primary antibody (RAC1, CDC42 or RHOA) was added and the tubes and were incubated for 45 min at room temperature. […] Absorption was detected at 490 nm using a plate reader (Tecan Sparks).
Aqueous solubility of compounds was assessed by determination of the kinetic solubility of a test compound in aqueous buffer compared to a solution in organic solvent (acetonitrile). […]

[2] = molecular target: T1, RHOGDI1-mediated extraction of CDC42 (Homo sapiens, UniProt P52565); experiment: Liposome sedimentation assay: displacement of prenylated GDP-bound CDC42 by GST-RHOGDI1; assay type: biochemical; details: 50 μM compound
T1 construct: made in house; host or cells: RHOGDI1: E. coli; prenylated CDC42: insect cells (TNAO38)
Description: Supplementary Figure S4. Compound 7a impairs RHOGDI1 function. (a) Assay setup for the liposome sedimentation assay. (b) Displacement of prenylated GDP‐bound RAC1 from synthetic liposomes by GST-RHOGDI1 in the presence or absence of 50 μM 7a was measured using liposome floatation assay. Data is representative of three independent experiments.
Liposome-containing phase represented by fluorescent colour as result of 5% fluorescent NDB-PE was analysed by Western blotting. Data are representatives of three independent […]
experiments. (c-d) Displacement of prenylated
GDP‐bound RHO GTPases (RHOA and CDC42) from synthetic liposomes by GST‐RHOGDI1 […]
liposome sedimentation assay. Data is representative of three independent experiments. P: […]
Liposome sedimentation assay
Liposomes were prepared by self-assembly of the lipids (500 μg) containing 20% (w/w) phosphatidylethanolamine, 45% (w/w) phosphatidylcholine, 20% (w/w) phosphatidylserine, 10% (w/w) cholesterol, and 5% (w/w) phosphatidylinositol 4,5-bisphosphate. […] The resulting pellet and supernatant fractions were collected and analyzed by immunoblotting. […]
The resulting samples were centrifuged at 140000 x g for 1 h at 4 °C. The upper liposome‐ containing phase (detected by fluorescent NDB‐PE) was collected and analyzed by […]

T1 sequence (P52565 whole entry): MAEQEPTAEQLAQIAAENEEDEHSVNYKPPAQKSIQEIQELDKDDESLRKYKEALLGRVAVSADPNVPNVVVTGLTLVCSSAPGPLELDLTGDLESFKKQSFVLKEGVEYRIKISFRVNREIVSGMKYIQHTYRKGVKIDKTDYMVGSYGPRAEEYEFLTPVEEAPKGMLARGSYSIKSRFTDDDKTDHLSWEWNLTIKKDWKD

| Inhibition of RHOGDI1-mediated extraction of CDC42 (in words) [2] | Structure (SMILES) | Wound closure / cell migration (in words) [1] |
| --- | --- | --- |
|  | COC(=O)C1(C(CC(=O)c2cccnc2)c2ccccc2)N=C(c2ccc(Br)cc2)C2C(=O)N(C)C(=O)C21 (centres unmarked) [7l] | moderately inhibited wound closure |
| inhibited | COC(=O)C1(C(CC(=O)c2ccccc2)c2ccccc2)N=C(c2ccc(Br)cc2)C2C(=O)N(C)C(=O)C21 (centres unmarked) [7a] |  |
